Results: patent EP0007672A1, “Isocyanoalkenes, process and useful intermediates for their preparation, pharmaceutical and fungicidal preparations containing those isocyanoalkenes and the use of the fungicidal preparations in agriculture” (GIST-BROCADES N.V., priority 1978, dated 1980)
In brackets after ≈: the same amount, converted by molar mass. Read-outs that look alike come from different tables or passages of the source. Each block holds one compound with its values, some of them ahead of it.

Experiments:
Assay in all cases: MIC (Minimum Inhibitory Concentration)
Assay type in all cases: cell-based
Proteus morganii = settings: Morganella morganii; Proteus morganii 2241
[1] = system: Trichophyton schoenleinii; settings: Trichophyton schoenleinii 435-63; read-out: MIC values
[2] = system: Streptococcus haemolyticus; settings: Streptococcus haemolyticus A 1088; read-out: MIC values
[3] = system: Trichophyton mentagrophytus
Trichophyton rubrum = system: Trichophyton rubrum
Candida albicans = system: Candida albicans
Staphylococcus aureus = system: Staphylococcus aureus
Pasteurella multocida = Pasteurella multocida A 723; read-out: MIC values
Trichophyton tonsurans = Trichophyton tonsurans 561-50; read-out: MIC values
Bacillus subtilis = settings: ATCC6633; Bacillus subtilis ATCC 6633
[4] = system: Trichophyton soudanese joyeux; settings: Trichophyton soudanese joyeux 440-63; read-out: MIC values
Trichophyton violoceum = Trichophyton violoceum 442-62; read-out: MIC values
Diplococcus pneumoniae = settings: Streptococcus pneumoniae; Diplococcus pneumoniae A 2783
Trichophyton verrucosum = system: Trichophyton verrucosum
Trichophyton equinum = system: Trichophyton equinum
Penicillium veridicatum = Penicillium veridicatum A 2370
Aspergillus flavus = Aspergillus flavus A 2385
Penicillium patalum = Penicillium patalum A 2389
Aspergillus parasiticus = system: Aspergillus parasiticus
Penicillium italicum = Penicillium italicum 278-65
Aspergillus versiodor = Aspergillus versiodor Nr. 7
Fusarium = Fusarium A 3241
Rhizoctonia solani = Rhizoctonia solani 200-25; read-out: MIC values
Fusarium (tulip) = Fusarium (tulip) A 3253
Trichophyton quickeaneum = Trichophyton quickeaneum A 2040; read-out: MIC values
Penicillium rubrum = settings: Talaromyces ruber; Penicillium rubrum A 2395
Fusarium solani = Fusarium solani A 3245; read-out: MIC values
Penicillium islandicum = settings: Talaromyces islandicus; Penicillium islandicum D 189
Fusarium (bulb) = Fusarium (bulb) A 3252
[5] = Trichophyton mentagrophytus 367-68, read-out: MIC values
[6] = Trichophyton mentagrophytus 421-67, read-out: MIC values
[7] = Trichophyton mentagrophytus A 3252, read-out: MIC values
[8] = Trichophyton mentagrophytus R 177, read-out: MIC values
[9] = Trichophyton mentagrophytus R 178, read-out: MIC values
[10] = Trichophyton mentagrophytus RRL 305, read-out: MIC values
[11] = Trichophyton rubrum 218-65, read-out: MIC values
[12] = Trichophyton rubrum 494-62, read-out: MIC values
[13] = Trichophyton rubrum A 810, read-out: MIC values
[14] = Candida albicans A 7, read-out: MIC values
[15] = Candida albicans A 3140, read-out: MIC values
[16] = Candida albicans A 3141, read-out: MIC values
[17] = Candida albicans A 3144, read-out: MIC values
[18] = Candida albicans A 3145, read-out: MIC values
[19] = Candida albicans A 3165, read-out: MIC values
[20] = Candida albicans A 3166, read-out: MIC values
[21] = Candida albicans A 3167, read-out: MIC values
[22] = Candida albicans A 3168, read-out: MIC values
[23] = Candida albicans A 3169, read-out: MIC values
[24] = Candida albicans A 3171, read-out: MIC values
[25] = Candida albicans A 3191, read-out: MIC values
[26] = Candida albicans A 3194, read-out: MIC values
[27] = Candida albicans A 3196, read-out: MIC values
[28] = Trichophyton verrucosum 134-66, read-out: MIC values
[29] = Trichophyton equinum 856-71, read-out: MIC values

- MIC (Proteus morganii): 6 µg/mL (≈ 19.1 µM)
- MIC [1]: 3 µg/mL (≈ 9.57 µM)
- MIC [3, 5]: 25 µg/mL (≈ 79.8 µM)
- MIC [3, 6]: 100 µg/mL (≈ 319 µM)
- MIC [3, 7]: 100 µg/mL (≈ 319 µM)
- MIC [3, 8]: 12.5 µg/mL (≈ 39.9 µM)
- MIC [3, 9]: > 100 µg/mL
- MIC [3, 10]: 25 µg/mL (≈ 79.8 µM)
- MIC (Trichophyton rubrum; [11]): 25 µg/mL (≈ 79.8 µM)
- MIC (Trichophyton rubrum; [12]): 100 µg/mL (≈ 319 µM)
- MIC (Trichophyton rubrum; [13]): 25 µg/mL (≈ 79.8 µM)
- MIC (Candida albicans; [14]): 1.5 µg/mL (≈ 4.79 µM)
- MIC (Candida albicans; [15]): 1.5 µg/mL (≈ 4.79 µM)
- MIC (Candida albicans; [16]): 1.5 µg/mL (≈ 4.79 µM)
- MIC (Candida albicans; Candida albicans A 3142, read-out: MIC values): 1.5 µg/mL (≈ 4.79 µM)
- MIC (Candida albicans; Candida albicans A 3143, read-out: MIC values): 1.5 µg/mL (≈ 4.79 µM)
- MIC (Candida albicans; [17]): 1.5 µg/mL (≈ 4.79 µM)
- MIC (Candida albicans; [18]): 1.5 µg/mL (≈ 4.79 µM)
- MIC (Candida albicans; [19]): 1.5 µg/mL (≈ 4.79 µM)
- MIC (Candida albicans; [20]): 1.5 µg/mL (≈ 4.79 µM)
- MIC (Candida albicans; [21]): 1.5 µg/mL (≈ 4.79 µM)
- MIC (Candida albicans; [22]): 1.5 µg/mL (≈ 4.79 µM)
- MIC (Candida albicans; [23]): 1.5 µg/mL (≈ 4.79 µM)
- MIC (Candida albicans; [24]): 1.5 µg/mL (≈ 4.79 µM)
- MIC (Candida albicans; Candida albicans A 3184, read-out: MIC values): 1.5 µg/mL (≈ 4.79 µM)
- MIC (Candida albicans; Candida albicans A 3190, read-out: MIC values): 1.5 µg/mL (≈ 4.79 µM)
- MIC (Candida albicans; [25]): 1.5 µg/mL (≈ 4.79 µM)
- MIC (Candida albicans; Candida albicans A 3192, read-out: MIC values): 1.5 µg/mL (≈ 4.79 µM)
- MIC (Candida albicans; [26]): 1.5 µg/mL (≈ 4.79 µM)
- MIC (Candida albicans; [27]): 1.5 µg/mL (≈ 4.79 µM)
- MIC (Staphylococcus aureus; Staphylococcus aureus A 321): 3 µg/mL (≈ 9.57 µM)
- MIC (Staphylococcus aureus; Staphylococcus aureus A 355): 3 µg/mL (≈ 9.57 µM)
- MIC (Staphylococcus aureus; Staphylococcus aureus A 2000): 1.5 µg/mL (≈ 4.79 µM)
- MIC (Pasteurella multocida): 3 µg/mL (≈ 9.57 µM)
- MIC (Trichophyton tonsurans): 0.8 µg/mL (≈ 2.55 µM)
- MIC (Bacillus subtilis): 3 µg/mL (≈ 9.57 µM)
- MIC [4]: 6 µg/mL (≈ 19.1 µM)
- MIC (Trichophyton violoceum): 3 µg/mL (≈ 9.57 µM)
- MIC (Diplococcus pneumoniae): 6 µg/mL (≈ 19.1 µM)
- MIC (Trichophyton verrucosum; [28]): 1.5 µg/mL (≈ 4.79 µM)
- MIC (Trichophyton equinum; Trichophyton equinum 441-51, read-out: MIC values): 1.5 µg/mL (≈ 4.79 µM)
- MIC (Trichophyton equinum; [29]): 100 µg/mL (≈ 319 µM)
SMILES: [C-]#[N+]C(=Cc1ccc(OC)cc1)S(=O)(=O)c1ccc(C)cc1 [Example 23, 1-isocyano-2-(4-methoxyphenyl)-1-(4-toluenesulphonyl)-ethene]
- MIC [2]: < 0.05 µg/mL

SMILES: C[C@@H]1C/C=C/C=C/C=C/C=C/[C@H](O[C@@H]2O[C@H](C)[C@@H](O)[C@H](N)[C@@H]2O)C[C@@H]2O[C@](O)(C[C@@H](O)C[C@H]3O[C@@H]3/C=C/C(=O)O1)C[C@H](O)[C@H]2C(=O)O [natamycin, reference compound]
- MIC [1]: 25 µg/mL (≈ 37.6 µM)
- MIC (Penicillium veridicatum): 1.5 µg/mL (≈ 2.25 µM)
- MIC (Aspergillus flavus): 50 µg/mL (≈ 75.1 µM)
- MIC [3, 5]: 12.5 µg/mL (≈ 18.8 µM)
- MIC [3, 6]: 12.5 µg/mL (≈ 18.8 µM)
- MIC [3, 7]: 100 µg/mL (≈ 150 µM)
- MIC [3, 8]: 50 µg/mL (≈ 75.1 µM)
- MIC [3, 9]: 50 µg/mL (≈ 75.1 µM)
- MIC [3, 10]: 12.5 µg/mL (≈ 18.8 µM)
- MIC (Penicillium patalum): 3 µg/mL (≈ 4.51 µM)
- MIC (Trichophyton rubrum; [11]): 12.5 µg/mL (≈ 18.8 µM)
- MIC (Trichophyton rubrum; [12]): 25 µg/mL (≈ 37.6 µM)
- MIC (Trichophyton rubrum; [13]): 12.5 µg/mL (≈ 18.8 µM)
- MIC (Aspergillus parasiticus; Aspergillus parasiticus A 2396): 2.5 µg/mL (≈ 3.76 µM)
- MIC values (Aspergillus parasiticus; Aspergillus parasiticus A 2397): 2.5 µg/mL (≈ 3.76 µM)
- MIC (Candida albicans; [14]): 12.5 µg/mL (≈ 18.8 µM)
- MIC (Candida albicans; [15]): 25 µg/mL (≈ 37.6 µM)
- MIC (Candida albicans; [16]): 3 µg/mL (≈ 4.51 µM)
- MIC (Candida albicans; [17]): 3 µg/mL (≈ 4.51 µM)
- MIC (Candida albicans; [18]): 3 µg/mL (≈ 4.51 µM)
- MIC (Candida albicans; [19]): 25 µg/mL (≈ 37.6 µM)
- MIC (Candida albicans; [20]): 6 µg/mL (≈ 9.01 µM)
- MIC (Candida albicans; [21]): 1.5 µg/mL (≈ 2.25 µM)
- MIC (Candida albicans; [22]): 12.5 µg/mL (≈ 18.8 µM)
- MIC (Candida albicans; [23]): 1.5 µg/mL (≈ 2.25 µM)
- MIC (Candida albicans; [24]): 6 µg/mL (≈ 9.01 µM)
- MIC (Candida albicans; [25]): 6 µg/mL (≈ 9.01 µM)
- MIC (Candida albicans; [26]): 3 µg/mL (≈ 4.51 µM)
- MIC (Candida albicans; [27]): 6 µg/mL (≈ 9.01 µM)
- MIC (Penicillium italicum): 3 µg/mL (≈ 4.51 µM)
- MIC (Aspergillus versiodor): 6 µg/mL (≈ 9.01 µM)
- MIC (Trichophyton tonsurans): 12.5 µg/mL (≈ 18.8 µM)
- MIC (Fusarium): 3 µg/mL (≈ 4.51 µM)
- MIC (Rhizoctonia solani): 2.3 µg/mL (≈ 3.45 µM)
- MIC (Fusarium (tulip)): 6 µg/mL (≈ 9.01 µM)
- MIC (Trichophyton quickeaneum): 12.5 µg/mL (≈ 18.8 µM)
- MIC [4]: 25 µg/mL (≈ 37.6 µM)
- MIC (Penicillium rubrum): 3 µg/mL (≈ 4.51 µM)
- MIC (Trichophyton violoceum): 50 µg/mL (≈ 75.1 µM)
- MIC (Fusarium solani): 9.3 µg/mL (≈ 14 µM)
- MIC (Penicillium islandicum): 3 µg/mL (≈ 4.51 µM)
- MIC (Trichophyton verrucosum; [28]): 25 µg/mL (≈ 37.6 µM)
- MIC (Trichophyton verrucosum; Trichophyton verrucosum A 2922, read-out: MIC values): 25 µg/mL (≈ 37.6 µM)
- MIC (Fusarium (bulb)): 6 µg/mL (≈ 9.01 µM)
- MIC (Trichophyton equinum; Trichophyton equinum 182-76, read-out: MIC values): 25 µg/mL (≈ 37.6 µM)
- MIC (Trichophyton equinum; [29]): 6 µg/mL (≈ 9.01 µM)
